{"source": "patent US10525044B2", "about": "“Treatment for chemotherapy-induced peripheral neuropathy” (priority 2013, dated 2020)", "key": {"[1]": {"tested_on": "mouse liver cancer cell line BNLT3", "assay": "Cell density of BNLT3 cells (phase contrast)", "type": "cell-based", "experimental": "(§1) Cancer Cell Culture. The mouse liver cancer cell line BNLT3 (gift of Dr. Jack Wands, Brown University) and the human lung cancer cell line H460 (ATCC) were seeded into 96-well plates at a density of 4,000 cells/well and cultured at 37° C., 5% CO2, in DMEM (11965, Gibco) supplemented with 10% fetal bovine serum, 20 mM HEPES, 1 mM sodium pyruvate, and […] gentamycin (all reagents came from Gibco).\n(§2) Cell Insults and Treatments. Determination of concentration for each anticancer drug in our experiments was based on its reported concentration in human cerebral spinal fluid (CSF) in chemotherapy, literature report of its neurotoxicity in culture, and our preliminary in vitro experimental data. At 13 d.i.v., the neuronal cell cultures were insulted with 100 μM of MTX (M9929, Sigma), 25 μM of 5-FU (F6627, Sigma), or 3.5 μM of CDDP (sc-200896, Santa Cruz) for 3 days in absence or presence of PAN 811.Cl.H2O. For ROS examination, the neurons were insulted with both 100 μM of MTX and 25 μM of 5-FU by 15 d.i.v. PAN-811.Cl.H2O was added to cultures to final concentrations of 1.25, 2.5, 5, and 10 μM at the same time as addition of the anticancer drugs. For cancer cell lines, the cells were insulted by the second day of cell seeding with the same concentration of MTX, 5-FU, or CDDP as used in neuronal culture in the absence or presence of 10 μM PAN-811.Cl.H2O for another 3 days.\n(§3) Quantitative Assays and Morphological Assessment. Cell membrane integrity and mitochondrial function of either neurons or cancer cells were measured with LDH and 3-(4,5-dimethylthiazol-2-yl)-5-(3-carboxymethoxyphenyl)-2-(4-sulfophenyl)-2H-tetrazolium [MTS] analyses, respectively. The latter has been used to quantify cell survival. For the LDH assay, a mixture of a 35 μL aliquot of culture supernatant and 17.5 μL of Mixed Substrate, Enzyme and Dye Solutions (Sigma) was incubated at room temperature (RT) for 30 minutes. For the MTS assay, 10 μL of MTS reagent (Promega) was added to a culture well containing neurons in 50 μL of medium. The preparations were incubated at 37° C. for 2 hours. The preparations for both assays were then spectrophotometrically measured at 490 nm using a 96-well plate reader (Mode 550, Bio-Rad). Neuronal cell death was morphologically determined based on the integrity of the cell soma and continuity of neuronal processes. The change in number of cancer cells was judged directly by cell density. Cells were photographed under an inverted phase contrast microscope (IX 70, Olympus) using 10× or 20× objective."}, "[2]": {"tested_on": "human Alzheimer's disease-derived and age-matched olfactory neuroepithelial cells", "conditions": "via suppression of intracellular reactive oxygen species; cited from earlier work"}, "[3]": {"tested_on": "hydrogen peroxide-induced LDH release", "conditions": "cited from earlier work"}, "rat, arterial occlusion": {"tested_on": "rat, arterial occlusion", "conditions": "i.c.v., 50 μg per rat at 1 h after arterial occlusion; cited from earlier work"}, "[4]": {"conditions": "cell-free system, EDTA as positive control; cited from earlier work"}, "[5]": {"tested_on": "mixed cortical and striatal neurons", "assay": "MTS assay (cell viability) in neuronal cell culture", "type": "cell-based", "experimental": "(§4) Neuronal Cell Culture. Mixed cortical and striatal neurons fromembryonic day 17 male Sprague-Dawley rats (tissue obtained from NIH) were seeded into poly-D-lysine coated 96-well plates at density of 50,000 cells/well and initially cultured at 37° C., 5% CO2, in neurobasal medium (NB) with B27 supplement (Invitrogen) containing full strength of AOs to obtain highly enriched (95%) neurons. Since AOs, including vitamin E, vitamin E acetate, superoxide dismutase (SOD), catalase (CAT), and GSH, are additives to culture medium, reduction of AO concentration in culture medium provides an approach to determine the level of OS involvement in a neurotoxic process. In our study, the culture medium was replaced at a 50% ratio with NB plus B27 minus AOs twice at days 7 and 9 to set AO concentrations as 50% and 25%, respectively. At 16 days in vitro (d.i.v.), a fraction of the culture medium was harvested for lactate dehydrogenase (LDH) assay, and then AO concentration was reduced to 12.5% and cultured for a further 5 hours prior to ending the experiment.\nas §2, §3\n(§5) Data Analysis. Data were generated from 4-6 replicate wells, expressed as mean±standard deviation (SD), and statistically evaluated at a significance level of 1% with one factor ANOVA or Student's t-test by using software VASSARSTATS (http://vassarstats.net/) followed by the Tukey HSD test. Figure symbols are as follows: #, P<0.05, and ##, P<0.01, compared with control; *, P<0.05, and **, P<0.01, compared with the insulted group; §§, P<0.01, compared with PAN-811 treated group by Student's t-test."}, "[6]": {"tested_on": "human lung cancer cell line H460", "assay": "Cell density of H460 cells (phase contrast)", "type": "cell-based", "experimental": "as §1, §2, §3"}, "[7]": {"tested_on": "mouse liver cancer cell line BNLT3", "assay": "MTS assay in BNLT3 cancer cells", "type": "cell-based", "experimental": "as §1, §2, §3, §5"}, "[8]": {"tested_on": "mixed cortical and striatal neurons", "assay": "LDH assay (cell membrane integrity) in neuronal cell culture", "type": "cell-based", "experimental": "as §4, §2, §3, §5"}, "[9]": {"tested_on": "hypoxia-induced neuronal cell death", "conditions": "1.2 μM; cited from earlier work"}, "[10]": {"tested_on": "human lung cancer cell line H460", "assay": "MTS assay in H460 cancer cells", "type": "cell-based", "experimental": "as §1, §2, §3, §5"}, "[11]": {"tested_on": "staurosporine-induced apoptosis", "conditions": "cited from earlier work"}, "[12]": {"conditions": "3.5 μM CDDP and 10 μM PAN-811, 3 days"}, "[13]": {"conditions": "25 μM 5-FU and 10 μM PAN-811, 3 days"}, "[14]": {"conditions": "100 μM MTX and 10 μM PAN-811, 3 days"}, "[15]": {"conditions": "each agent alone, 3 days: MTX 100 μM, 5-FU 25 μM, CDDP 3.5 μM, PAN-811 10 μM"}}, "note": "pEC50: −log10 of the molar value. Several values for one entry are separate records, joined by “and”; a condition that tells them apart may be missing. Equal entries are not always repeated. Entries after “also recorded” stand apart in the source; their conditions may differ."}
{"smiles": "NC(=S)N/N=C/c1ncccc1N", "note": "[PAN-811, 3-aminopyridine-2-carboxaldehyde thiosemicarbazone]", "values": [{"measurement": "cell density, cotreatment with CDDP", "setting": "[1]; [12]", "value": "significant reduction in the cell density"}, {"measurement": "cell number, cotreatment with 5-FU", "setting": "[1]; [13]", "value": "significantly decreased the cell number"}, {"measurement": "cell density, cotreatment with MTX", "setting": "[1]; [14]", "value": "cell density was also much lower than that in no-insult control"}, {"measurement": "cell density / cancer cell number", "setting": "[1]; [15]", "value": "cell density was also much lower than that in no-insult control; also recorded: significant reduction in the cell density"}, {"measurement": "oxidative stress-induced cell death", "setting": "[2]", "value": "inhibited"}, {"measurement": "suppression of hydrogen peroxide-induced LDH release", "setting": "[3]; 1 μM, vs untreated/H2O2-insulted group", "value": 78, "unit": "%"}, {"measurement": "suppression of hydrogen peroxide-induced LDH release, maximal protection", "setting": "[3]; 10 μM, vs untreated and H2O2-insulted group", "value": 90, "unit": "%"}, {"measurement": "pEC50", "setting": "[3]; read-out: EC50, protection against hydrogen peroxide-induced LDH release", "value": "~6.26"}, {"measurement": "reduction of infarct volume", "setting": "rat, arterial occlusion", "value": 59, "unit": "%"}, {"measurement": "chelation of free calcium", "setting": "[4]", "value": "as efficiently as EDTA"}, {"measurement": "inhibition of CDDP-induced MTS reduction", "setting": "[5]; 10 μM PAN-811, 3.5 μM CDDP, 12.5% AO", "value": 48, "unit": "%"}, {"measurement": "5-FU-induced MTS reduction", "setting": "[5]; 10 μM PAN-811, 25 μM 5-FU, 12.5% AO", "value": "completely blocked"}, {"measurement": "5-FU- or CDDP-induced MTS reduction, dose dependence", "setting": "[5]; neurons in 12.5% AO, PAN-811 1.25-10 μM", "value": "dose-dependently inhibited"}, {"measurement": "cell density, cotreatment with CDDP", "setting": "[6]; [12]", "value": "greatly decreased the cell density"}, {"measurement": "cell density, cotreatment with 5-FU", "setting": "[6]; [13]", "value": "robustly decreased the cell density"}, {"measurement": "cell density, cotreatment with MTX", "setting": "[6]; [14]", "value": "robustly decreased the cell density"}, {"measurement": "cell density", "setting": "[6]; [15]", "value": "robustly decreased the cell density; also recorded: greatly decreased the cell density"}, {"measurement": "MTS reading, cotreatment vs PAN-811 alone", "setting": "[7]; [12]", "value": "did not introduce an extra reduction in MTS reading"}, {"measurement": "inhibition of the effect of MTX, 5-FU, or CDDP on BNLT3 cells", "setting": "[7]; 10 μM PAN-811", "value": "did not show any inhibition"}, {"measurement": "synergistic effect with each tested anticancer drug on BNLT3 cell growth", "setting": "[7]; 10 μM PAN-811", "value": "neither did it demonstrate any synergistic effect"}, {"measurement": "MTS reading, cotreatment vs 5-FU alone", "setting": "[7]; [13]", "value": "caused a further reduction in MTS reading"}, {"measurement": "MTS reading, cotreatment vs MTX alone", "setting": "[7]; [14]", "value": "did not cause any further reduction in MTS reading"}, {"measurement": "LDH release in CDDP-insulted cultures", "setting": "[8]; 5 μM PAN-811, 3.5 μM CDDP", "value": "fully blocked"}, {"measurement": "LDH release in 5-FU-insulted cultures", "setting": "[8]; 5 μM PAN-811, 25 μM 5-FU", "value": "fully blocked"}, {"measurement": "LDH release in MTX-insulted cultures", "setting": "[8]; 5 μM PAN-811, 100 μM MTX", "value": "fully blocked"}, {"measurement": "MTX/5-FU-elicited LDH increase", "setting": "[8]; 10 μM PAN-811, 100 μM MTX and 25 μM 5-FU", "value": "fully inhibited"}, {"measurement": "suppression of MTX/5-FU-elicited LDH release, concentration dependence", "setting": "[8]; PAN-811 1.25 to 10 μM, 100 μM MTX and 25 μM 5-FU", "value": "concentration-dependent suppression"}, {"measurement": "LDH increase caused by each anticancer drug, dose dependence", "setting": "[8]; neurons, MTX 100 μM, 5-FU 25 μM or CDDP 3.5 μM", "value": "dose-dependently suppressed"}, {"measurement": "hypoxia-induced neuronal cell death", "setting": "[9]", "value": "completely halted"}, {"measurement": "interaction with CDDP on suppression of H460 growth", "setting": "[10]; 3.5 μM CDDP and 10 μM PAN-811", "value": "synergistic effect"}, {"measurement": "reduction of MTS reading, cotreatment with CDDP", "setting": "[10]; [12]", "value": 85, "unit": "%"}, {"measurement": "inhibition of the effect of MTX, 5-FU, or CDDP on cell growth of H460 cells", "setting": "[10]; 10 μM PAN-811", "value": "did not show any inhibition"}, {"measurement": "interaction with 5-FU on suppression of H460 growth", "setting": "[10]; 25 μM 5-FU and 10 μM PAN-811", "value": "synergistic effect"}, {"measurement": "reduction of MTS reading, cotreatment with 5-FU", "setting": "[10]; [13]", "value": 84, "unit": "%"}, {"measurement": "MTS reading, cotreatment with MTX", "setting": "[10]; [14]", "value": "about the same as 10 μM PAN-811 alone"}, {"measurement": "reduction of MTS reading", "setting": "[10]; [15]", "value": "76% and 74% and 75%"}, {"measurement": "staurosporine-induced apoptosis", "setting": "[11]", "value": "prevents"}]}
